ChEMBL document CHEMBL4673251, “Fluorinated 2-Arylcyclopropan-1-amines - A new class of sigma receptor ligands” (Bioorg Med Chem, 2020)
Active and inactive are the calls of the source. The rule behind the calls is not given here.

Experiments:
[1] = molecular target: T1, Sigma non-opioid intracellular receptor 1 (Cavia porcellus, UniProt Q60492); assay: Displacement of [3H]-(+)-pentazocine from sigma1 receptor in guinea pig brain membrane incubated for 120 mins by solid scintillation counting method; format: cell membranes, Cell membrane
[2] = molecular target: T2, Sigma intracellular receptor 2 (Rattus norvegicus) (UniProt Q5U3Y7); assay: Displacement of [3H]-di-o-tolylguanidine from Sigma 2 receptor in rat liver membrane at 1 uM incubated for 120 mins by solid scintillation counting method; format: cell membranes; details: Cell membrane
T2 sequence (whole entry): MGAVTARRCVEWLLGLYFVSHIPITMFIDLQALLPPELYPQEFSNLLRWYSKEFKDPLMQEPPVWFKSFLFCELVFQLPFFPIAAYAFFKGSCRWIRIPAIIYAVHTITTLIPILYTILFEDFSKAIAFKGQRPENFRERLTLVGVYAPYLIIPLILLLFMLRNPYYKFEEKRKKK

Sus scrofa = organism: Sus scrofa; assay: Displacement of [3H]-(+)-MK-801 from PCP binding site of NMDA receptor in pig brain cortex membranes after 120 mins by solid scintillation counting method; details: Cell membrane
[3] = molecular target: T3, Sigma intracellular receptor 2 (Rattus norvegicus, UniProt Q5U3Y7); assay: Displacement of [3H]-di-o-tolylguanidine from Sigma 2 receptor in rat liver membrane incubated for 120 mins by solid scintillation counting method; format: cell membranes, Cell membrane
T3 sequence (Q5U3Y7 whole entry): T2 sequence (whole entry)

[4] = molecular target: Sigma non-opioid intracellular receptor 1 (Cavia porcellus) (UniProt Q60492); assay: Displacement of [3H]-(+)-pentazocine from sigma1 receptor in guinea pig brain membrane at 1 uM incubated for 120 mins by solid scintillation counting method; format: cell membranes; details: Cell membrane
[5] = Dissociation constant, pKa of the compound; format: physicochemical
[6] = molecular target: T1, Sigma non-opioid intracellular receptor 1; assay: Displacement of [3H]-pentazocine from sigma1 receptor in guinea pig brain membrane incubated for 150 mins by scintillation counting method; format: cell membranes, Cell membrane
[7] = Displacement of [3H]-di-o-tolylguanidine from Sigma 2 receptor in guinea pig brain membrane incubated for 120 mins by scintillation counting method; format: cell membranes, Cavia porcellus, Cell membrane

Chain of Sigma non-opioid intracellular receptor 1 (Cavia porcellus) (Q60492 whole entry): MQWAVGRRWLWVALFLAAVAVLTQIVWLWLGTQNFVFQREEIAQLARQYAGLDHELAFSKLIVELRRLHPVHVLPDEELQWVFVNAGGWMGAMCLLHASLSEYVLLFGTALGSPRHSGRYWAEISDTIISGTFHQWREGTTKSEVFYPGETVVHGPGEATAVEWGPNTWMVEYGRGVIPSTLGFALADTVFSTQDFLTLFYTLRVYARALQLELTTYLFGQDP
T1 sequence (Q60492 whole entry): as above

SMILES	inhibition [2]	Activity (Sus scrofa)	inhibition [4]	other results
NCC1CC1(F)c1ccccc1 (stereo not given)	24%	inactive	–	Ki [1]: 429 nM
COc1ccc(C2(F)CC2N)cc1OC (stereo not given)	–	inactive	24%	Ki [3]: 3100 nM
FC1(c2ccccc2)CC1NCc1ccccc1 (stereo not given)	0%	inactive	0%	–
NCCC1CC1(F)c1ccccc1 (stereo not given)	5%	inactive	24%	–
COc1cccc(C2(F)CC2N)c1.Cl (cis isomer)	–	–	–	pKa [5]: 6.89
CNC1CC1(F)c1ccccc1 (racemic)	19%	inactive	0%	–
N[C@@H]1C[C@H]1c1ccccc1.N[C@H]1C[C@@H]1c1ccccc1 (racemic) [TRANYLCYPROMINE]	–	–	–	Ki [1]: 1800 nM; Ki [3]: 6200 nM
COC(=O)C1(c2ccccc2)CC1CNC12CC3CC(CC(C3)C1)C2 (racemic; cis)	–	–	–	Ki [6]: 3 nM; Ki [7]: 23 nM
COC(=O)C1(c2ccccc2)CC1CNC12CC3CC(CC(C3)C1)C2 (racemic; trans)	–	–	–	Ki [6]: 226 nM; Ki [7]: 135 nM
CNC1CC1(F)c1ccccc1 (stereo in doubt; 11a)	0%	inactive	0%	–
NC1CC1(F)c1ccc(F)cc1 (stereo in doubt; 17b) [listing 1 of 2 here]	–	–	–	Ki [1]: 428 nM; Ki [3]: 2400 nM
NC1CC1(F)c1ccc(F)cc1 (stereo in doubt; 17b) [listing 2 of 2 here]	–	inactive	–	–
COc1ccc(C2(F)CC2N)cc1 (stereo in doubt; 19b) [listing 1 of 2 here]	–	–	–	Ki [1]: 366 nM
NC1CC1(F)c1ccc(C(F)(F)F)cc1 (stereo in doubt; 20b) [listing 1 of 2 here]	–	–	–	Ki [1]: 13 nM; Ki [3]: 95 nM; pKa ([5]; read-out: pKa): 7
NC1(c2ccccc2)CC1(F)c1ccccc1 (stereo in doubt; 24b) [listing 1 of 2 here]	–	–	–	Ki [1]: 527 nM; Ki [3]: 7100 nM
NC1(c2ccccc2)CC1(F)c1ccccc1 (stereo in doubt; 24b) [listing 2 of 2 here]	–	inactive	–	–
NC1CC1(F)c1ccc(F)cc1 (trans isomer) [listing 1 of 2 here]	–	–	–	Ki [3]: 1200 nM
NC1CC1(F)c1ccc(C(F)(F)F)cc1 (trans isomer) [listing 1 of 2 here]	–	–	–	Ki [1]: 1900 nM; Ki [3]: 911 nM
COc1cccc(C2(F)CC2N)c1 (trans isomer) [listing 1 of 2 here]	–	–	–	pKa ([5]; read-out: pKa): 6.63
NC1(c2ccccc2)CC1(F)c1ccccc1 (trans isomer) [listing 1 of 2 here]	–	–	–	Ki [1]: 399 nM; Ki [3]: 2300 nM
COc1ccc(C2(F)CC2N)cc1 (trans isomer) [listing 1 of 2 here]	–	–	–	Ki [1]: 4.8 nM; pKa ([5]; read-out: pKa): 7.5
NC1CC1(F)c1ccc(S(F)(F)(F)(F)F)cc1 (trans isomer) [listing 1 of 2 here]	–	–	–	Ki [1]: 660 nM
Fc1cccc(C2(F)CC2NCc2ccccc2)c1 (trans isomer)	0%	inactive	0%	–
NC1(c2ccccc2)CC1(F)c1ccccc1 (trans isomer) [listing 2 of 2 here]	–	inactive	–	–
NC1CC1(F)c1ccc(F)cc1 (trans isomer) [listing 2 of 2 here]	–	inactive	27%	–

The next lines start with results.

inhibition [2]	Activity (Sus scrofa)	inhibition [4]	SMILES	other results
–	inactive	–	NC1CC1(F)c1ccc(Cl)cc1 (cis isomer)	Ki [1]: 1500 nM; Ki [3]: 2000 nM
–	inactive	25%	Cc1ccc(C2(F)CC2N)cc1 (cis isomer)	Ki [3]: 3100 nM
–	inactive	14%	COc1cccc(C2(F)CC2N)c1 (cis isomer)	–
–	inactive	17%	NC1CC1(F)c1ccc(S(F)(F)(F)(F)F)cc1 (cis isomer)	–
49%	inactive	13%	NC1CC1(F)c1cccc([N+](=O)[O-])c1 (cis isomer)	–
23%	inactive	30%	NC1CC1(F)c1ccccc1 (cis isomer)	–
33%	inactive	–	COc1ccc(C2(F)CC2N)cc1 (stereo in doubt; 19b) [listing 2 of 2 here]	–
–	inactive	–	NC1CC1(F)c1ccc(C(F)(F)F)cc1 (stereo in doubt; 20b) [listing 2 of 2 here]	–
53%	inactive	1%	NC1CC1(F)c1ccc([N+](=O)[O-])cc1 (stereo in doubt; 25b)	–
16%	inactive	0%	NC1CC1(F)c1cccc(F)c1 (stereo in doubt; 27b)	–
32%	inactive	–	COc1ccc(C2(F)CC2N)cc1 (trans isomer) [listing 2 of 2 here]	–
–	inactive	25%	COc1cccc(C2(F)CC2N)c1 (trans isomer) [listing 2 of 2 here]	–
–	inactive	–	NC1CC1(F)c1ccc(C(F)(F)F)cc1 (trans isomer) [listing 2 of 2 here]	–
–	inactive	–	NC1CC1(F)c1ccc(S(F)(F)(F)(F)F)cc1 (trans isomer) [listing 2 of 2 here]	–
0%	inactive	13%	NC1CC1(F)c1ccc([N+](=O)[O-])cc1 (trans isomer)	–
31%	inactive	0%	NC1CC1(F)c1cccc(F)c1 (trans isomer)	–
18%	inactive	16%	NC1CC1(F)c1cccc([N+](=O)[O-])c1 (trans isomer)	–
